Laboratory results published in patent US11339161B2, “Triazolo pyridines as modulators of gamma-secretase” (Boehringer Ingelheim International GmbH, priority 2017, dated 2022).
Read-outs that look alike come from different tables or passages of the source.

Key:
kinases = test: Z'-LYTE SelectScreen kinase panel: number of kinases with <40% inhibition out of 15 tested; assay type: biochemical; details: 10 μmolar (10000 nM) compound; [ATP] Km app; 15 kinases tested
ABL1 = ABL1 (Homo sapiens, UniProt P00519); test: Z'-LYTE SelectScreen biochemical kinase assay ABL1
Chain of ABL1 (P00519 whole entry): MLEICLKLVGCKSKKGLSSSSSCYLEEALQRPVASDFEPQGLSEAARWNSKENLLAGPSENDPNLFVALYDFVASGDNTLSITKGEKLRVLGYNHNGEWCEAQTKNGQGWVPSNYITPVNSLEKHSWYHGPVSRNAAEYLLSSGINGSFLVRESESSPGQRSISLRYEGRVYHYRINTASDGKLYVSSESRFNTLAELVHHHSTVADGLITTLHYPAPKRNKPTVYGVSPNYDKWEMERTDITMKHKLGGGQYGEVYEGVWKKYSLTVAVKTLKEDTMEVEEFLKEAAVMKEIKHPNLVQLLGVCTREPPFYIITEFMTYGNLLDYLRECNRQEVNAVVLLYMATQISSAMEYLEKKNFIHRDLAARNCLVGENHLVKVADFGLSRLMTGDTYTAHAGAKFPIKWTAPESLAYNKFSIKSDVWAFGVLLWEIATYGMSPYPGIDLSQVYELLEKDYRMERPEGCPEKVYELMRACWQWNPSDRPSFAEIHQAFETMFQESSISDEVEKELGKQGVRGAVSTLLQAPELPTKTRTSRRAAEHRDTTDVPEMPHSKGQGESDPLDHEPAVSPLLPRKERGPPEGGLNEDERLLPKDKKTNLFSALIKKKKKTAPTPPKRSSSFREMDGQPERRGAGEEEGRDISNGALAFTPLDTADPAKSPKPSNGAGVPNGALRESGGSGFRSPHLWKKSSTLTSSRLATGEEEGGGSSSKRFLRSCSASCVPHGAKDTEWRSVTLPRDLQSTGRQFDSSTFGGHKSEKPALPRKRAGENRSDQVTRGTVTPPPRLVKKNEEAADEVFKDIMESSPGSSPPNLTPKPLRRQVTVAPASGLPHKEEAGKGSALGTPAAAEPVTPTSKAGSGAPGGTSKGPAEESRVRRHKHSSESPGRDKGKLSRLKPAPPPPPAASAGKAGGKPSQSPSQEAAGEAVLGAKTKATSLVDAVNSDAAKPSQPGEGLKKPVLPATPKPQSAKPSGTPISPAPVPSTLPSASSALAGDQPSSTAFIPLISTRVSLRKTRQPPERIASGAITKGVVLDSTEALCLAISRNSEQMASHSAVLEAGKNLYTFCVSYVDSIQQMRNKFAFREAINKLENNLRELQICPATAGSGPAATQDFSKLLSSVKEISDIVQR
Description: (§1) Thermo Fisher Scientific SelectScreen™ Biochemical Kinase Profiling Service Z′-LYTE™ Screening Protocol and Assay Conditions Assay Theory
(§2) The […] biochemical assay employs a fluorescence-based, coupled-enzyme format and is based on the differential sensitivity of phosphorylated and non-phosphorylated peptides to proteolytic cleavage. The peptide substrate is labeled with two fluorophores—one at each end—that make up a FRET pair. In the primary reaction, the kinase transfers the gamma-phosphate of ATP to a single tyrosine, serine or threonine residue in a synthetic FRET-peptide. In the secondary reaction, a site-specific protease recognizes and cleaves non-phosphorylated FRET-peptides. Phosphorylation of FRET-peptides suppresses cleavage by the Development Reagent. Cleavage disrupts FRET between the donor (i.e., coumarin) and acceptor (i.e., fluorescein) fluorophores on the FRET-peptide, whereas uncleaved, phosphorylated FRET-peptides maintain FRET. A ratiometric method, which calculates the ratio (Emission Ratio=Coumarin emission (445 nm)/Fluorescein emission (520 nm)) of donor emission to acceptor emission after excitation of the donor fluorophore at 400 nm, is used to quantitate reaction progress, as shown in the equation below. A significant benefit of this ratiometric method for quantitating reaction progress is the elimination of well-to-well variations in FRET-peptide concentration and signal intensities. As a result, the assay yields very high Z′-factor values (>0.7) at a low percent phosphorylation. Both cleaved and uncleaved FRET-peptides contribute to the fluorescence signals and therefore to the Emission Ratio. The extent of phosphorylation of the FRET-peptide can be calculated from the Emission Ratio. The Emission Ratio will remain low if the FRET-peptide is phosphorylated (i.e., no kinase inhibition) and will be high if the FRET-peptide is non-phosphorylated (i.e., kinase inhibition).
(§3) The Test Compounds are screened in 1% DMSO (final) in the well. For 10 point titrations, 3-fold serial dilutions are conducted from the starting concentration of the customer's choosing.
(§4) All Peptide/Kinase Mixtures are diluted to a 2× working concentration in the appropriate Kinase Buffer (see section Kinase Specific Assay Conditions for a complete description).
(§5) All ATP Solutions are diluted to a 4× working concentration in Kinase Buffer (50 mM HEPES pH 7.5, 0.01% BRIJ-35, 10 mM MgCl2, 1 mM EGTA). ATP Km apparent is previously determined using a Z″-LYTE assay.
(§6) The Development Reagent is diluted in Development Buffer (see section Kinase-Specific Assay Conditions—Direct and Cascade for a complete description).
(§7) Bar-coded Corning, low volume NBS, black 384-well plate (Corning Cat. #4514) • 1. 100 nL—100× Test Compound in 100% DMSO • 2. 2.4 μL—Kinase buffer • 3. 5 μL—2× Peptide/Kinase Mixture • 4. 2.5 μL—4×ATP Solution • 5. 30—second plate shake • 6. 60—minute Kinase Reaction incubation at room temperature • 7. 5 μL—Development Reagent Solution • 8. 30—second plate shake • 9. 60—minute Development Reaction incubation at room temperature • 10. Read on fluorescence plate reader and analyze the data Z′-LYTE Assay Controls
(§8) SelectScreen Kinase Profiling Service uses XLfit from IDBS. The dose response curve is curve fit to model number 205 (sigmoidal dose-response model).
The 2×ABL1/Tyr 02 mixture is prepared in 50 mM HEPES pH 7.5, 0.01% BRIJ-35, 10 mM MgCl2, 1 mM EGTA. The final 10 μL Kinase Reaction consists of 0.29-1.26 ng ABL1 and 2 μM Tyr 02 in 50 mM HEPES pH 7.5, 0.01% BRIJ-35, 10 mM MgCl2, 1 mM EGTA. After the 1 hour Kinase Reaction incubation, 5 μL of a 1:128 dilution of Development Reagent A is added.

FGFR2 = FGFR2 (Homo sapiens, UniProt P21802); test: Z'-LYTE SelectScreen biochemical kinase assay FGFR2
Chain of FGFR2 (P21802 22-821): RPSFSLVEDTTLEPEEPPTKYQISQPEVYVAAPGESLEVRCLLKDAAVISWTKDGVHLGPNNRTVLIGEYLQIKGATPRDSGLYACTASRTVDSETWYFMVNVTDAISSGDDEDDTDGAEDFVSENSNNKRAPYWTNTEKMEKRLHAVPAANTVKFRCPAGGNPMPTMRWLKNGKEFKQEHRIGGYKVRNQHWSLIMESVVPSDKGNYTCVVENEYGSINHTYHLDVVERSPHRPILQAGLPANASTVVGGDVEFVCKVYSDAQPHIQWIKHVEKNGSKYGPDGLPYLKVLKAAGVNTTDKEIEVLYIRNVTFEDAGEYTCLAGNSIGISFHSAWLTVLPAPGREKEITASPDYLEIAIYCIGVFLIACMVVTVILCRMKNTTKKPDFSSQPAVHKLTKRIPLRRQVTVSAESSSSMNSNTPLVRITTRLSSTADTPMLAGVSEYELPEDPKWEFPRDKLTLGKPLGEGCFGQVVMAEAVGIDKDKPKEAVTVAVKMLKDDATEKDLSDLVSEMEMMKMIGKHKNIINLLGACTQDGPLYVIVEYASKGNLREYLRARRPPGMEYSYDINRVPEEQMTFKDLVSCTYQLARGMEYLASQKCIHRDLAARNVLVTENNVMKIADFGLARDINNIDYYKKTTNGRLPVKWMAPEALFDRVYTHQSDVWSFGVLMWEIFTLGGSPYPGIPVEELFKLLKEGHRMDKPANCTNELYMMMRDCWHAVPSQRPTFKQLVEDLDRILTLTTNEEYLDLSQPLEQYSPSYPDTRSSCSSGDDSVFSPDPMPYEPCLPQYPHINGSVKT
Description: as §1, §2, §3, §4, §5, §6, §7, §8
The 2×FGFR2/Tyr 04 mixture is prepared in 50 mM HEPES pH 7.5, 0.01% BRIJ-35, 10 mM MgCl2, 4 mM MnCl2, 1 mM EGTA, 2 mM DTT. The final 10 μL Kinase Reaction consists of 0.19-1.99 ng FGFR2 and 2 μM Tyr 04 in 50 mM HEPES pH 7.5, 0.01% BRIJ-35, 10 mM MgCl2, 2 mM MnCl2, 1 mM EGTA, 1 mM DTT. After the 1 hour Kinase Reaction incubation, 5 μL of a 1:64 dilution of Development Reagent B is added.

[1] = 10 μmolar compound concentration, ATP at Km app, read-out: ABL1 inhibition
[2] = read-out: % Inhibition mean ABL1
[3] = 10 μmolar compound concentration, ATP at Km app, read-out: FGFR2 inhibition
[4] = read-out: % Inhibition mean FGFR2

Row | SMILES | No. of kinases with <40% inhibition (kinases) | inhibition at 10 µM (ABL1; [1]) [%] | inhibition at 10 µM (ABL1; [2]) [%] | inhibition at 10 µM (FGFR2; [3]) [%] | inhibition at 10 µM (FGFR2; [4]) [%]
1 | Cc1cc(F)ccc1-c1cccn2nc(Nc3ccc4c(cnn4C)c3)nc12 [Example 9, [8-(4-fluoro-2-methyl-phenyl)-[1,2,4]triazolo[1,5-a]pyridine-2-yl]-(1-methyl-1H-indazol-5-yl)-amine] | 7/15 | 40 to 80 | 63 | 40 to 80 | 46
2 | Cc1cc(F)ccc1-c1cccn2nc(NC3CCc4c(cnn4C)C3)nc12 (centres unmarked) [Example 10, [8-(4-fluoro-2-methyl-phenyl)-[1,2,4]triazolo[1,5-a]pyridine-2-yl]-(1-methyl-4,5,6,7-tetrahydro-1H-indazol-5-yl)-amine] | 13/15 | < 40 | 1 | < 40 | 14
3 | Cc1cc(F)ccc1-c1cccn2nc(NC3CCc4cnn(C)c4C3)nc12 (centres unmarked) [Example 40, [8-(4-Fluoro-2-methyl-phenyl)-[1,2,4]triazolo[1,5-a]pyridine-2-yl]-(1-methyl-4,5,6,7-tetrahydro-1H-indazol-6-yl)-amine] | 13/15 | < 40 | 9 | < 40 | 17
4 | CCn1ncc2c1CCC(Nc1nc3c(-c4ccc(F)cc4C)cccn3n1)C2 (centres unmarked) [Example 42, (1-Ethyl-4,5,6,7-tetrahydro-1H-indazol-5-yl)-[8-(4-fluoro-2-methyl-phenyl)-[1,2,4]triazolo[1,5-a]pyridine-2-yl]-amine] | 15/15 | < 40 | 19 | < 40 | 26
5 | CCCn1ncc2c1CCC(Nc1nc3c(-c4ccc(F)cc4C)cccn3n1)C2 (centres unmarked) [Example 43, [8-(4-fluoro-2-methyl-phenyl)-[1,2,4]triazolo[1,5-a]pyridine-2-yl]-(1-propyl-4,5,6,7-tetrahydro-1H-indazol-5-yl)-amine] | 14/15 | < 40 | 17 | < 40 | 14
6 | Cc1cc(F)ccc1-c1cccn2nc(NC3CCc4c(cnn4C(C)C)C3)nc12 (centres unmarked) [Example 44, [8-(4-fluoro-2-methyl-phenyl)-[1,2,4]triazolo[1,5-a]pyridine-2-yl]-(1-isopropyl-4,5,6,7-tetrahydro-1H-indazol-5-yl)-amine] | 13/15 | < 40 | 13 | < 40 | 22
7 | Cc1cc(F)ccc1-c1cccn2nc(NC3CCc4c(cnn4CC(C)C)C3)nc12 (centres unmarked) [Example 45, [8-(4-fluoro-2-methyl-phenyl)-[1,2,4]triazolo[1,5-a]pyridine-2-yl]-(1-isobutyl-4,5,6,7-tetrahydro-1H-indazol-5-yl)-amine] | 14/15 | < 40 | 24 | < 40 | 16
8 | CCCCn1ncc2c1CCC(Nc1nc3c(-c4ccc(F)cc4C)cccn3n1)C2 (centres unmarked) [Example 46, [8-(4-fluoro-2-methyl-phenyl)-[1,2,4]triazolo[1,5-a]pyridine-2-yl]-(1-butyl-4,5,6,7-tetrahydro-1H-indazol-5-yl)-amine] | 14/15 | < 40 | 10 | < 40 | 26
9 | CCCCCn1ncc2c1CCC(Nc1nc3c(-c4ccc(F)cc4C)cccn3n1)C2 (centres unmarked) [Example 47, [8-(4-fluoro-2-methyl-phenyl)-[1,2,4]triazolo[1,5-a]pyridine-2-yl]-(1-pentyl-4,5,6,7-tetrahydro-1H-indazol-5-yl)-amine] | 15/15 | < 40 | 3 | < 40 | 21
10 | CCn1nc(Cl)c2c1CCC(Nc1nc3c(-c4ccc(F)cc4C)cccn3n1)C2 (centres unmarked) [Example 48, (3-Chloro-1-ethyl-4,5,6,7-tetrahydro-1H-indazol-5-yl)-[8-(4-fluoro-2-methyl-phenyl)-[1,2,4]triazolo[1,5-a]pyridine-2-yl]-amine] | 14/15 | < 40 | 13 | < 40 | 22
11 | CCn1ncc2c1C(C)CC(Nc1nc3c(-c4cc(F)c(F)c(F)c4)cccn3n1)C2 (centres unmarked) [Example 49, (1-Ethyl-7-methyl-4,5,6,7-tetrahydro-1H-indazol-5-yl)-[8-(3,4,5-trifluoro-phenyl)-[1,2,4]triazolo[1,5-a]pyridine-2-yl]-amine] | 14/15 | < 40 | 15 | < 40 | 31
12 | CCn1nnc2c1CCC(Nc1nc3c(-c4ccc(F)cc4C)cccn3n1)C2 (centres unmarked) [Example 51, (1-Ethyl-4,5,6,7-tetrahydro-1H-benzotriazol-5-yl)-[8-(4-fluoro-2-methyl-phenyl)-[1,2,4]triazolo[1,5-a]pyridine-2-yl]-amine] | 15/15 | < 40 | 6 | < 40 | 28
13 | CCc1nn(C)c2c1CCC(Nc1nc3c(-c4ccc(F)cc4C)cccn3n1)C2 (centres unmarked) [Example 54, (3-Ethyl-1-methyl-4,5,6,7-tetrahydro-1H-indazol-6-yl)-[8-(4-fluoro-2-methyl-phenyl)-[1,2,4]triazolo[1,5-a]pyridine-2-yl]-amine] | 15/15 | < 40 | 12 | < 40 | 25
14 | CCn1ncc2c1CCC(Nc1nc3c(-c4ccc(F)cc4)cccn3n1)C2 (centres unmarked) [Example 55, (1-Ethyl-4,5,6,7-tetrahydro-1H-indazol-5-yl)-[8-(4-fluoro-phenyl)-[1,2,4]triazolo[1,5-a]pyridine-2-yl]-amine] | 13/15 | < 40 | 21 | < 40 | 13
15 | CCn1ncc2c1CCC(Nc1nc3c(-c4ccccc4C)cccn3n1)C2 (centres unmarked) [Example 56, (1-Ethyl-4,5,6,7-tetrahydro-1H-indazol-5-yl)-[8-(2-methyl-phenyl)-[1,2,4]triazolo[1,5-a]pyridine-2-yl]-amine] | 12/15 | < 40 | 20 | < 40 | 19
16 | CCn1ncc2c1CCC(Nc1nc3c(-c4ccccc4)cccn3n1)C2 (centres unmarked) [Example 57, (1-Ethyl-4,5,6,7-tetrahydro-1H-indazol-5-yl)-(8-phenyl-[1,2,4]triazolo[1,5-a]pyridine-2-yl)-amine] | 12/15 | < 40 | 11 | < 40 | 22
